Reference: patent publication US12174190B2, “Combined markers for metastatic cancer and uses thereof” (Albert Einstein College of Medicine, priority 2017, dated 2024)

What was measured:
Format in all cases: in vivo, human
[1] = tested on: TMEM (Tumor Microenvironment of Metastasis); assay: TMEM score in breast cancers before and after neoadjuvant chemotherapy (NAC); settings: 20 breast cancer patients, before vs after NAC (weekly paclitaxel 80 mg/m^2 x 12 weeks followed by dose-dense AC); FIG. 5B-C
Method: (§1) FIG. 5A-5D. Neoadjuvant chemotherapy increases TMEM, MenaCalc and MenaINV scores in some breast cancer patients. Paclitaxel (and other cytotoxic chemotherapy) increases TMEM Score, MenaCalc and MenaINV expression in breast cancer patients treated with neoadjuvant chemotherapy (NAC). (A) Study design. (B) Individual TMEM scores of 20 patients before and after receiving NAC, which included weekly paclitaxel (80 mg/m^2×12 consecutive weeks) followed sequentially by dose-dense AC chemotherapy (doxorubicin 60 mg/m^2 and cyclophosphamide 600 mg/m^2 every 2 weeks×4 cycles, plus pegrastim 6 mg SC on day 2 of each cycle). Horizontal line; TMEM high-risk cutoff point. […] (D) MenaCalc expression in fine needle aspiration (FNA) biopsies, as assessed by real-time RT-PCR from 4 patients before and after 2 doses of neo-adjuvant chemotherapy with paclitaxel. (E) MenaINV gene expression in FNA biopsy samples, as assessed by real-time RT-PCR, taken from 5 breast cancer patients before and after 2-weeks of receiving NAC with paclitaxel. […]
Individual TMEM scores of 20 patients were determined before and after receiving NAC, which included weekly paclitaxel (80 mg/m^2×12 consecutive weeks) followed sequentially by dose-dense AC chemotherapy (doxorubicin 60 mg/m^2 and cyclophosphamide 600 mg/m^2 every 2 weeks×4 cycles, plus pegrastim 6 mg SC on day 2 of each cycle) (see FIG. 5B). […]

[2] = tested on: MenaCalc; assay: MenaCalc expression in FNA biopsies by real-time RT-PCR before and after NAC with paclitaxel; settings: FNA biopsies from 4 patients, before vs after 2 doses of neo-adjuvant paclitaxel; FIG. 5D
Method: as §1, with “point. For each pair of bars, Pre-NAC scores are shown in the first bar in the pair and Post-NAC scores are shown in the second bar.” for “point.”
(§2) MenaCalc expression was determined in fine needle aspiration (FNA) biopsies, as assessed by real-time RT-PCR from 4 patients before and after 2 doses of neo-adjuvant chemotherapy with paclitaxel (see FIG. 5D). […]

[3] = tested on: MenaINV; assay: MenaINV gene expression in FNA biopsy samples by real-time RT-PCR before and after NAC with paclitaxel; settings: FNA biopsies from 5 breast cancer patients, before vs after 2 weeks of NAC with paclitaxel; FIG. 5E
Method: as §1, with “point. For each pair of bars, Pre-NAC scores are shown in the first bar in the pair and Post-NAC scores are shown in the second bar.” for “point.”
as §2

CC(=O)O[C@H]1C(=O)[C@@]2(C)[C@H]([C@H](OC(=O)c3ccccc3)[C@]3(O)C[C@H](OC(=O)[C@H](O)[C@@H](NC(=O)c4ccccc4)c4ccccc4)C(C)=C1C3(C)C)[C@]1(OC(C)=O)CO[C@@H]1C[C@@H]2O [paclitaxel]
increases: TMEM Score [1] | MenaCalc expression [2] | MenaINV expression [3]
